Non-standard residues stand in square brackets, D forms with d. Residues, ends and D or L forms follow the SMILES beside them. *: point of attachment. boroGlu = O=C(O)CC[C@H](N*)B(O)O; Gly(cPr) = N[C@H](C(=O)O)C1CC1
Key:
His6-CylA-27-412 [1] = molecular target: T1, His6-CylA-27-412 (Enterococcus faecalis, UniProt A0A2P6AWB8); assay: FRET assay, initial rates of FRET peptide cleavage; type: biochemical; settings: 762, 254, or 85 pM of inhibitor (substoichiometric; enzyme 20 nM)
T1 sequence (A0A2P6AWB8 27-412): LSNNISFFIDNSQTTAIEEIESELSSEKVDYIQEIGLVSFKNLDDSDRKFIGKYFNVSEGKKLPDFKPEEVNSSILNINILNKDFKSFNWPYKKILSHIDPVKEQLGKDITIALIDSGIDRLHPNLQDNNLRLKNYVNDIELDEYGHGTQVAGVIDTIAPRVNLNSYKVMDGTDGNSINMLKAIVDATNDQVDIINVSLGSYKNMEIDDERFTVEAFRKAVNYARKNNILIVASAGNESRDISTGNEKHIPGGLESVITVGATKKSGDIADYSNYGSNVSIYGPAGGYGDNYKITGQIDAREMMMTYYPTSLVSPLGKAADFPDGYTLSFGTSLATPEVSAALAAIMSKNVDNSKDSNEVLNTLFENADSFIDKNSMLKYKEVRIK
Procedure: A FRET assay was developed to directly detect the inhibition of His6-CylA-27-412 activity by inhibitor 9. Fmoc SPPS was used to prepare a FRET labeled substrate. The substrate recognition sequence and a portion of the N-terminus of unmodified CylLS were embedded in between N-terminal Asp(EDANS) and C-terminal Lys(DABCYL) residues (Fig. 5A).
A Structure of the FRET substrate and its cleavage by CylA. Samples of FRET substrate (44 µM) in PBS (pH = 7.4) before and after treatment with His6-CylA-27-412 (200 nM) overnight at 37 °C. […] Points represent the mean. Error bars represent the standard of deviation and are centered at the mean. C The relationship between relative enzyme activity (vi/vo) and concentration of 9. […] The colored line represents the calculated fit function. Points represent the mean and error bars represent the standard of deviation centered at the mean. […] For (D) and (E) absorbance at 220 nm was monitored. […] Statistical significance was calculated using a one sample and one-sided t test. *P < 0.05, **P < 0.01. […]
The emission intensity of EDANS was measured over a 4 h period using a BioTek Synergy H4 plate reader. The slope of the linear portion of the emission intensity as a function of time curve was calculated (vi), divided by the slope of an uninhibited control (vo), and the ratio (vi/vo) was plotted as function of total inhibitor concentration.

His6-CylA-27-412 [2] = molecular target: T1, His6-CylA-27-412; assay: Co-operative pore formation assay (pyranine liposomes) measuring CylA-catalyzed cytolysin maturation; type: biochemical
From the text: Cytolysin causes hemolysis and lyses a variety of eukaryotic cells[36],[37]. Additionally, CylA aggregates and is thought to associate primarily with the membrane of the producing cell[52],[53]. To mimic the maturation of cytolysin in vitro, an enzyme assay was designed that linked toxin production to the lysis of fluorescently labeled liposomes. […] In this way, pyranine fluorescence was correlated to toxin activation allowing for the determination of EC50 values (Fig. 4B, C).
Fig. 4 In vitro pore formation assay for determining inhibitor effectiveness. A A schematic of the assay showing how pore formation is used as an indicator of toxin maturation. […] Pore formation dissipates a pH gradient between the interior of the liposome and the surrounding buffer increasing pyranine fluorescence. […] The data points from two replicates are shown (n = 2). Source data are provided as a Source Data file.
Pyranine encapsulated liposomes were prepared as described elsewhere. […] To a well in a black 96-well plate (200 µL) was added 90 µL high pH buffer (5 mM MES, 5 mM Tricine, 5 mM NaCl, pH 7.4) containing CylA (4 nM final concentration). After adding inhibitor, the mixture was incubated at room temperature for 10 min then freshly prepared (no more than 2 days old) pyranine encapsulated DOPC liposomes were added such that the total DOPC concentration was 80 µM. […] The resulting curves were max-min normalized yielding the fraction of permeabilized liposomes. […] This experiment was performed in duplicate or triplicate for each inhibitor at each concentration.
Supplementary Figure 3. Measuring CylA-cat alyzed cytolysin maturation using a pyranine pore formation assay. Plots on the left side show the normalized pyranine emission intensity monitored […]
was added 30 min later. Each trace w as collected using a differ ent total co ncentration of inhibitor as indicated in the l egend. Traces are from a single representative tri al. On the right side, the fraction of liposomes permeabilized after 30 min was plotted as a function of total inhibitor concentration. The data were fit to a dose-response function using Origin 7 and the fit curve is depicted by the red line. Errors bars represent the standard of deviation bet ween two replicates (n = 2). Source d ata are pro vided as a Source Data file. […]

Structure (SMILES): CC(=O)NCC(=O)N[C@@H](CC(=O)O)C(=O)N[C@H](C(=O)N[C@@H](CCC(N)=O)C(=O)N[C@@H](C)C(=O)N[C@@H](CCC(=O)O)B(O)O)C1CC1 [Compound 9] (Ac-GD[Gly(cPr)]QA-boroGlu)
- rate of FRET peptide cleavage (His6-CylA-27-412 [1]): increased significantly
- more effective than compound 1 at inhibiting pore formation (His6-CylA-27-412 [2]): 2 fold
